# Laboratory results taken from US9255094B2, “Pyrido[4,3-B]indoles and methods of use” (Medivation Technologies, Inc., priority 2009, dated 2016).
# How the values were obtained:
# [1] = molecular target: T1, human recombinant adrenergic α2A receptor (Homo sapiens, UniProt P08913); assay: Adrenergic α2A radioligand binding assay ([3H]MK-912); details: compound at 1 μM, 1 nM [3H]MK-912, insect Sf9 cells
# T1 construct: expressed in transfected cells; host or cells: insect Sf9 cells
# T1 sequence (P08913 1-465): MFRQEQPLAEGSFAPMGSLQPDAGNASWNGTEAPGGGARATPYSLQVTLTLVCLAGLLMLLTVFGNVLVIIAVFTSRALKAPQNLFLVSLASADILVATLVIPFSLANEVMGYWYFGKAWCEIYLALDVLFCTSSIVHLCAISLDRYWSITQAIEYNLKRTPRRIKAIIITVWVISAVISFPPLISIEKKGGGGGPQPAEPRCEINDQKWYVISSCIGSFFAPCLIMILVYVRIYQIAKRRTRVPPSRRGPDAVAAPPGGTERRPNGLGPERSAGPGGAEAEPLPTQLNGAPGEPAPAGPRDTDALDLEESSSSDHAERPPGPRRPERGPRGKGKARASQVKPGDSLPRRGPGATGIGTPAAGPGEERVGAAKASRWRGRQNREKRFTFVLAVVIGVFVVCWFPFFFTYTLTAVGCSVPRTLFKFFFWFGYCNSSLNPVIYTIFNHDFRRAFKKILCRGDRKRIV
# Method: To evaluate in radioligand binding assays the activity of compounds of the invention, human recombinant adrenergic α2A receptor expressed in insect Sf9 cells (Uhlen S et al. J. Pharmacol. Exp. Ther. 271:1558, 1994) in a modified Tris-HCl buffer (50 mM Tris-HCl, pH 7.4, 12.5 mM MgCl2, 2 mM EDTA) was used. Compounds of invention were incubated with 1 nM [^3H]MK-912 for 60 min at 25° C. MK912 is (2S-trans)-1,3,4,5′,6,6′,7,12b-octahydro-1′,3′-dimethyl-spiro[2H-benzofuro[2,3-a]quinolizine-2,4′(1′H)-pyrimidin]-2′(3′H)-one hydrochloride Non-specific binding was estimated in the presence of 10 μM WB-4101 (2-(2,6-dimethoxyphenoxyethyl)aminomethyl-1,4-benzodioxane hydrochloride). Receptor proteins were filtered and washed, the filters were then counted to determine [^3H]MK-912 specifically bound.
# [2] = molecular target: T2, human recombinant serotonin (5-Hydroxytryptamine) 5-HT2A receptor (Homo sapiens, UniProt P28223); assay: Serotonin 5-HT2A radioligand binding assay ([3H]Ketanserin); details: compound at 1 μM, 0.5 nM [3H]Ketanserin, CHO-K1 cells
# T2 construct: expressed in transfected cells; host or cells: Chinese hamster ovary (CHO-K1) cells
# T2 sequence (P28223 whole entry): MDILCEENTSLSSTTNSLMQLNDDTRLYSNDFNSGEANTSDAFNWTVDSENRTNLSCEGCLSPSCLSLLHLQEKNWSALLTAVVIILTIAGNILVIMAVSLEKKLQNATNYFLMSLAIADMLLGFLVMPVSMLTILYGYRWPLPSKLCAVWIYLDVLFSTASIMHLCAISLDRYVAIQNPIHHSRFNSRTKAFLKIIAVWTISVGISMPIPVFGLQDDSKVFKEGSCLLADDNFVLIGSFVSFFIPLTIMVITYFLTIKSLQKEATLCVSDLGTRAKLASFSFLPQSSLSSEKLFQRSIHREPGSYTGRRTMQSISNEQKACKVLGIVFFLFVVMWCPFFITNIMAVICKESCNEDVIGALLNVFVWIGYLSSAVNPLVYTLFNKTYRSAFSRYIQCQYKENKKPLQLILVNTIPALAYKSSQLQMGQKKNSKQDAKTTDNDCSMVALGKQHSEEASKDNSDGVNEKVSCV
# Method: Compounds of the invention were incubated with 0.5 nM [^3H]Ketanserin for 60 min at 25° C. Non-specific binding was estimated in the presence of 1 μM Mianserin. Receptor proteins were filtered and washed, the filters were then counted to determine [^3H]Ketanserin specifically bound. Compounds were screened at 1 μM or lower, using 1% DMSO as vehicle. Biochemical assay results are presented as the percent inhibition of specific binding in Table 4.
compound,measurement,setting,value
"CCCCC(O)(Cn1c2c(c3cc(Cl)ccc31)CN(C)CC2)c1ccc(F)cc1 (stereo not shown) [Compound 1-7, 1-(8-chloro-2-methyl-3,4-dihydro-1H-pyrido[4,3-b]indol-5(2H)-yl)-2-(4-fluorophenyl)hexan-2-ol]",inhibition at 1 µM,"[1]; read-out: Percent Inhibition of ligand binding, Adrenergic (1 μM) a2A",88%
same,inhibition at 1 µM,"[2]; read-out: Percent Inhibition of ligand binding, Serotonin (1 μM) 5-HT2A",98%
"CCCCC(O)(Cn1c2c(c3cc(Cl)ccc31)CN(C)CC2)c1ccc(F)cc1 (stereo not shown) [Compound 1-64, 1-(8-chloro-2-methyl-3,4-dihydro-1H-pyrido[4,3-b]indol-5(2H)-yl)-2-(4-fluorophenyl)hexan-2-ol]","Percent Inhibition of ligand binding, Adrenergic (1 μM) a2A",[1],88%
same,"Percent Inhibition of ligand binding, Serotonin (1 μM) 5-HT2A",[2],98%
